Experimental data: ChEMBL document CHEMBL4304773, “Nitroimidazole-containing compounds and their antibacterial and antitubercular activities” (2019)
In brackets after ≈: the same amount, converted by molar mass.

Tests used:
Type in all cases: functional
Escherichia coli [1] = assay: Antibacterial activity against Escherichia coli infected in mouse
Pseudomonas aeruginosa [2] = assay: Antibacterial activity against Pseudomonas aeruginosa ATCC 27853 after 24 hrs by NCCLS method; details: ATCC 27853, 24 h
Bacillus subtilis = assay: Antibacterial activity against Bacillus subtilis ATCC 530 after 24 hrs by NCCLS method; details: ATCC 530, 24 h
Staphylococcus aureus [3] = assay: Antibacterial activity against Staphylococcus aureus ATCC 25923 after 24 hrs by NCCLS method; details: ATCC 25923, 24 h
Escherichia coli [4] = assay: Antibacterial activity against Escherichia coli ATCC 25922 after 24 hrs by NCCLS method; details: ATCC 25922, 24 h
Acinetobacter baumannii = assay: Antibacterial activity against Acinetobacter baumannii
Enterococcus faecalis = assay: Antibacterial activity against Enterococcus faecalis
Pseudomonas aeruginosa [5] = assay: Antibacterial activity against Pseudomonas aeruginosa ATCC 27853
Staphylococcus aureus [6] = assay: Antibacterial activity against Staphylococcus aureus ATCC 29213
Escherichia coli [7] = assay: Antibacterial activity against Escherichia coli ATCC 25922
Staphylococcus aureus [8] = assay: Antibacterial activity against methicillin-resistant Staphylococcus aureus N315
Pseudomonas aeruginosa [9] = assay: Antibacterial activity against Pseudomonas aeruginosa
Klebsiella pneumoniae = assay: Antibacterial activity against Klebsiella pneumoniae
Staphylococcus aureus [10] = assay: Antibacterial activity against Staphylococcus aureus ATCC 25923
Escherichia coli [11] = assay: Antibacterial activity against Escherichia coli
Helicobacter pylori [12] = assay: Antibacterial activity against Helicobacter pylori NCTC 11637
Helicobacter pylori [13] = assay: Antibacterial activity against Helicobacter pylori
Klebsiella aerogenes = assay: Antibacterial activity against Klebsiella aerogenes
Staphylococcus aureus [14] = assay: Antibacterial activity against Staphylococcus aureus
Streptococcus pyogenes = assay: Antibacterial activity against Streptococcus pyogenes

Structure (SMILES)	MIC (Pseudomonas aeruginosa [2]) [µg/mL]	MIC (Bacillus subtilis) [µg/mL]	MIC (Staphylococcus aureus [3]) [µg/mL]	MIC (Escherichia coli [4]) [µg/mL]	MIC (Acinetobacter baumannii) [µM]	MIC (Enterococcus faecalis) [µM]	MIC (Pseudomonas aeruginosa [5]) [µM]	MIC (Staphylococcus aureus [6]) [µM]	MIC (Escherichia coli [7]) [µM]	MIC (Staphylococcus aureus [8]) [µM]	MIC (Pseudomonas aeruginosa [9]) [µM]	MIC (Klebsiella pneumoniae) [µM]	MIC (Staphylococcus aureus [10]) [µM]	MIC (Escherichia coli [11]) [µM]	further results
CCn1cc(C(=O)OC)c(=O)c2cc(F)c(N3CCN(CCn4c([N+](=O)[O-])cnc4C)CC3)cc21															ED50 (Escherichia coli [1]): 3.5 to 13.2 mg/kg
Cc1nn(-c2ccccc2)c(Oc2ccc(Cl)cc2)c1/C=N/NC(=O)Cn1c([N+](=O)[O-])cnc1C	3.12 to 50 (≈ 6.32 to 101 µM)	3.12 to 50 (≈ 6.32 to 101 µM)	3.12 to 50 (≈ 6.32 to 101 µM)	3.12 to 50 (≈ 6.32 to 101 µM)											
CCCCCCCCCCCCN1CCN(c2ccc3c4c(cccc24)C(=O)N(CC(O)Cn2c([N+](=O)[O-])cnc2C)C3=O)CC1 (stereo unspecified)					13 to 1020 (≈ 8.23 to 645 µg/mL)	13 to 1020 (≈ 8.23 to 645 µg/mL)	13 to 1020 (≈ 8.23 to 645 µg/mL)	13 to 1020 (≈ 8.23 to 645 µg/mL)	13 to 1020 (≈ 8.23 to 645 µg/mL)	13 to 1020 (≈ 8.23 to 645 µg/mL)	13 to 1020 (≈ 8.23 to 645 µg/mL)	13 to 1020 (≈ 8.23 to 645 µg/mL)	13 to 1020 (≈ 8.23 to 645 µg/mL)	13 to 1020 (≈ 8.23 to 645 µg/mL)	
Cc1ncc([N+](=O)[O-])n1CC(O)CN1C(=O)c2cccc3c(N4CCCCC4)ccc(c23)C1=O (stereo unspecified)					69 to 1140 (≈ 32 to 528 µg/mL)	69 to 1140 (≈ 32 to 528 µg/mL)	69 to 1140 (≈ 32 to 528 µg/mL)	69 to 1140 (≈ 32 to 528 µg/mL)	69 to 1140 (≈ 32 to 528 µg/mL)	69 to 1140 (≈ 32 to 528 µg/mL)	69 to 1140 (≈ 32 to 528 µg/mL)	69 to 1140 (≈ 32 to 528 µg/mL)	69 to 1140 (≈ 32 to 528 µg/mL)	69 to 1140 (≈ 32 to 528 µg/mL)	
Cc1ncc([N+](=O)[O-])n1CCNCc1nonc1C(N)=O															MIC90 (Helicobacter pylori [12]): 0.5 to 32 µg/mL (≈ 1.69 to 108 µM); MIC90 (Helicobacter pylori [13]): 0.5 to 32 µg/mL (≈ 1.69 to 108 µM)
CCCCCCCCCCN1CCN(c2ccc3c4c(cccc24)C(=O)N(CC(O)Cn2c([N+](=O)[O-])cnc2C)C3=O)CC1 (stereo unspecified)					13 to 210 (≈ 7.86 to 127 µg/mL)	13 to 210 (≈ 7.86 to 127 µg/mL)	13 to 210 (≈ 7.86 to 127 µg/mL)	13 to 210 (≈ 7.86 to 127 µg/mL)	13 to 210 (≈ 7.86 to 127 µg/mL)	13 to 210 (≈ 7.86 to 127 µg/mL)	13 to 210 (≈ 7.86 to 127 µg/mL)	13 to 210 (≈ 7.86 to 127 µg/mL)	13 to 210 (≈ 7.86 to 127 µg/mL)	13 to 210 (≈ 7.86 to 127 µg/mL)	MIC (Klebsiella aerogenes): 13 µM (≈ 7.86 µg/mL)
Cc1ncc([N+](=O)[O-])n1CC(O)CN1C(=O)c2cccc3c(N4CCNCC4)ccc(c23)C1=O (stereo unspecified)					69 to 1140 (≈ 32 to 530 µg/mL)	69 to 1140 (≈ 32 to 530 µg/mL)	69 to 1140 (≈ 32 to 530 µg/mL)	69 to 1140 (≈ 32 to 530 µg/mL)	69 to 1140 (≈ 32 to 530 µg/mL)	69 to 1140 (≈ 32 to 530 µg/mL)	69 to 1140 (≈ 32 to 530 µg/mL)	69 to 1140 (≈ 32 to 530 µg/mL)	69 to 1140 (≈ 32 to 530 µg/mL)	69 to 1140 (≈ 32 to 530 µg/mL)	
Cc1nc([N+](=O)[O-])cn1Cc1nn(CNc2ccc(Br)cc2)c(=S)o1															MIC (Staphylococcus aureus [14]): 184 to 2890 µM (≈ 78.2 to 1230 µg/mL); MIC (Streptococcus pyogenes): 184 to 2890 µM (≈ 78.2 to 1230 µg/mL)

The next lines start with results.

MIC (Pseudomonas aeruginosa [2]) [µg/mL]	MIC (Bacillus subtilis) [µg/mL]	MIC (Staphylococcus aureus [3]) [µg/mL]	MIC (Escherichia coli [4]) [µg/mL]	Structure (SMILES)	MIC (Acinetobacter baumannii) [µM]	MIC (Enterococcus faecalis) [µM]	MIC (Pseudomonas aeruginosa [5]) [µM]	MIC (Staphylococcus aureus [6]) [µM]	MIC (Escherichia coli [7]) [µM]	MIC (Staphylococcus aureus [8]) [µM]	MIC (Pseudomonas aeruginosa [9]) [µM]	MIC (Klebsiella pneumoniae) [µM]	MIC (Staphylococcus aureus [10]) [µM]	MIC (Escherichia coli [11]) [µM]	further results
3.12 to 50 (≈ 6.37 to 102 µM)	3.12 to 50 (≈ 6.37 to 102 µM)	3.12 to 50 (≈ 6.37 to 102 µM)	3.12 to 50 (≈ 6.37 to 102 µM)	COc1ccc(Oc2c(/C=N/NC(=O)Cn3c([N+](=O)[O-])cnc3C)c(C)nn2-c2ccccc2)cc1											
3.12 to 50 (≈ 6.59 to 106 µM)	3.12 to 50 (≈ 6.59 to 106 µM)	3.12 to 50 (≈ 6.59 to 106 µM)	3.12 to 50 (≈ 6.59 to 106 µM)	Cc1ccc(Oc2c(/C=N/NC(=O)Cn3c([N+](=O)[O-])cnc3C)c(C)nn2-c2ccccc2)cc1											
3.12 to 50 (≈ 6.79 to 109 µM)	3.12 to 50 (≈ 6.79 to 109 µM)	3.12 to 50 (≈ 6.79 to 109 µM)	3.12 to 50 (≈ 6.79 to 109 µM)	Cc1nn(-c2ccccc2)c(Oc2ccccc2)c1/C=N/NC(=O)Cn1c([N+](=O)[O-])cnc1C											
3.12 to 50 (≈ 6.59 to 106 µM)	3.12 to 50 (≈ 6.59 to 106 µM)	3.12 to 50 (≈ 6.59 to 106 µM)	3.12 to 50 (≈ 6.59 to 106 µM)	Cc1ccc(-n2nc(C)c(/C=N/NC(=O)Cn3c([N+](=O)[O-])cnc3C)c2Oc2ccccc2)cc1											
